Results published in patent publication US20250034110A1, “LPAR1 ANTAGONISTS AND USES THEREOF” (Pipeline Therapeutics, Inc., priority 2021, published 2025).

Each compound was assayed against human LPAR1 (Homo sapiens, UniProt Q92633) (assay: In vitro functional assay of lysophosphatidic acid receptor 1 activity (calcium flux)). Settings: B103 cells stably expressing human LPAR1; calcium flux (Fluo-4 NW) after lysophosphatidic acid (18:1) at EC80; 100 pM to 10 μM; read-out: LPAR1 IC50.
Assay type: cell-based

Sequence of human LPAR1 (Q92633 whole entry): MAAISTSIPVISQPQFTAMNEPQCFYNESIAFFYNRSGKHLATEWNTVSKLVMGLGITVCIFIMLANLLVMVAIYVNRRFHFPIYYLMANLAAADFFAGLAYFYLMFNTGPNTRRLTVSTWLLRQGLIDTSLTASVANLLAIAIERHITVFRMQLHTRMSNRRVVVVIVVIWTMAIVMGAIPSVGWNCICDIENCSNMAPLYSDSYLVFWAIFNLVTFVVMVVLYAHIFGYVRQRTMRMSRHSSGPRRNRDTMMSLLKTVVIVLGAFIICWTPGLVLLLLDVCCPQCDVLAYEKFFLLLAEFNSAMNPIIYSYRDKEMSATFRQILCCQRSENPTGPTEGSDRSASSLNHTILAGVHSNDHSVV

Row | Structure (SMILES) | IC50 [nM]
1 | Cc1ccc(NC(=O)N(c2ccccc2C(C)C)[C@H]2CC[C@H](C(=O)O)CC2)c(OCC(F)F)n1 [Example 335, (1r,4r)-4-(3-(2-(2,2-difluoroethoxy)-6-methylpyridin-3-yl)-1-(2-isopropylphenyl)ureido)cyclohexane-1-carboxylic acid] | 10 to 100
2 | COc1ccc(NC(=O)N(c2ccccc2C(C)C)[C@H]2C[C@@]3(C[C@@H]3C(=O)O)C2)c(OC(F)F)n1 [Example 149] | 10 to 100
3 | COc1ccc(NC(=O)N(c2ccccc2C(C)C)[C@H]2CC[C@H](C(=O)NS(C)(=O)=O)CC2)c(OC(F)F)n1 [Example 279, (1r,4r)-4-(3-(2-(difluoromethoxy)-6-methoxypyridin-3-yl)-1-(2-isopropylphenyl)ureido)-N-(methylsulfonyl)cyclohexane-1-carboxamide] | < 10
4 | Cc1ccc(NC(=O)N(CC2CC(CC(=O)O)C2)c2ccccc2C(C)C)c(OC(F)F)n1 (stereo not shown) [Example 224] | < 10
5 | CC(=O)N1CCC2(CC1)CC(N(C(=O)Nc1ccc(C)nc1OC(F)F)c1ccccc1C(C)C)C2 [Example 251, 1-(7-acetyl-7-azaspiro[3.5]nonan-2-yl)-3-(2-(difluoromethoxy)-6-methylpyridin-3-yl)-1-(2-isopropylphenyl)urea] | > 1000
6 | Cc1ccc(NC(=O)N(c2ccccc2C(C)C)[C@H]2C[C@@H](Cc3nnn[nH]3)C2)c(OC(F)F)n1 [Example 192] | 10 to 100
7 | COc1ccc(NC(=O)N(c2ccccc2C(C)C)[C@H]2CC[C@@](O)(C(F)(F)C(=O)O)CC2)c(OC(F)F)n1 [Example 321, 2-((1r,4r)-4-(3-(2-(difluoromethoxy)-6-methoxypyridin-3-yl)-1-(2-isopropylphenyl)ureido)-1-hydroxycyclohexyl)-2,2-difluoroacetic acid] | < 10
8 | Cc1ccc(NC(=O)N(c2ccccc2C(C)C)[C@H]2CC[C@@H](CO)CC2)c(OC(F)F)n1 [Example 242] | 100 to 1000
9 | Cc1ccc(NC(=O)N(c2ccccc2C(C)C)[C@H]2C[C@H](OCc3ccccc3)C2)c(OC(F)F)n1 [Example 23, 1-((1r,3r)-3-(benzyloxy)cyclobutyl)-3-(2-(difluoromethoxy)-6-methylpyridin-3-yl)-1-(2-isopropylphenyl)urea] | 100 to 1000
10 | CC(C)c1ccccc1N(C(=O)Nc1ccc(Cl)cn1)[C@H]1C[C@@H](CC(=O)O)C1 [Example 306] | 100 to 1000
11 | CC(=O)N[C@H]1CC[C@@H](N(C(=O)Nc2ccc(C)nc2OC(F)F)c2ccccc2C(C)C)CC1 [Example 266, N-((1s,4s)-4-(3-(2-(difluoromethoxy)-6-methylpyridin-3-yl)-1-(2-isopropylphenyl)ureido)cyclohexyl)acetamide] | 100 to 1000
12 | Cc1ccc(NC(=O)N(c2ccccc2C(C)C)C2CCC(=O)N(C)C2)c(OC(F)F)n1 (stereo not shown) [Example 4, 3-(2-(difluoromethoxy)-6-methylpyridin-3-yl)-1-(2-isopropylphenyl)-1-(1-methyl-6-oxopiperidin-3-yl)urea] | 10 to 100
13 | Cc1ccc(NC(=O)N(c2ccccc2C(C)C)[C@H]2CC[C@H](C(=O)O)CC2)c(OCCF)n1 [Example 338, (1r,4r)-4-(3-(2-(2-fluoroethoxy)-6-methylpyridin-3-yl)-1-(2-isopropylphenyl)ureido)cyclohexane-1-carboxylic acid] | 10 to 100
14 | COc1ccc(NC(=O)N(c2ccccc2C(C)(C)F)[C@H]2CC[C@H](C(=O)O)CC2)c(OC(F)F)n1 [Example 278, (1r,4r)-4-(3-(2-(difluoromethoxy)-6-methoxypyridin-3-yl)-1-(2-(2-fluoropropan-2-yl)phenyl)ureido)cyclohexane-1-carboxylic acid] | 10 to 100
15 | Cc1ccc(NC(=O)N(c2ccccc2C(C)C)[C@H]2CC[C@H](C(=O)O)CC2)c(OC(F)F)n1 [Example 155, trans-4-(3-(2-(difluoromethoxy)-6-methylpyridin-3-yl)-1-(2-isopropylphenyl)ureido)cyclohexane-1-carboxylic acid] | 10 to 100
16 | CC(C)c1ccccc1N(C(=O)Nc1ncc(Cl)cc1OC(F)F)[C@H]1CC[C@H](C(=O)O)CC1 [Example 336, (1r,4r)-4-(3-(5-chloro-3-(difluoromethoxy)pyridin-2-yl)-1-(2-isopropylphenyl)ureido)cyclohexane-1-carboxylic acid] | 10 to 100
17 | COc1ccc(NC(=O)N(c2ccccc2C(C)C)[C@@H]2C[C@@H]3CC[C@H]2N3C(C)=O)c(OC(F)F)n1 (racemic) [Example 59, rac-1-((1R,2R,4S)-7-acetyl-7-azabicyclo[2.2.1]heptan-2-yl)-3-(2-(difluoromethoxy)-6-methoxypyridin-3-yl)-1-(2-isopropylphenyl)urea] | 100 to 1000
18 | Cc1ccc(NC(=O)N(c2ccccc2C(C)C)[C@H]2CC[C@H](CC(=O)O)CC2)c(OC(F)F)n1 [Example 165, 2-((1r,4r)-4-(3-(2-(difluoromethoxy)-6-methylpyridin-3-yl)-1-(2-isopropylphenyl)ureido)cyclohexyl)acetic acid] | < 10
19 | Cc1ccc(NC(=O)N(c2ccccc2C(C)C)[C@@H]2CCOC2)c(OC(F)F)n1 [Example 16, (R)-3-(2-(difluoromethoxy)-6-methylpyridin-3-yl)-1-(2-isopropylphenyl)-1-(tetrahydrofuran-3-yl)urea] | 10 to 100
20 | COc1ccc(NC(=O)N(c2ccccc2C(C)C)[C@H]2CC[C@H](C(=O)O)CC2)c(OCc2ccccc2)n1 [Example 253, (1r,4r)-4-(3-(2-(benzyloxy)-6-methoxypyridin-3-yl)-1-(2-isopropylphenyl)ureido)cyclohexane-1-carboxylic acid] | 10 to 100
21 | Cc1ccc(NC(=O)N(c2ccccc2C(C)C)[C@H]2CC[C@@H](c3cccnc3)CC2)c(OC(F)F)n1 [Example 260, 3-(2-(difluoromethoxy)-6-methylpyridin-3-yl)-1-(2-isopropylphenyl)-1-((1s,4s)-4-(pyridin-3-yl)cyclohexyl)urea] | > 1000
22 | CCOC(=O)N1CC(N(C(=O)Nc2ccc(C)nc2OC(F)F)c2ccccc2C(C)C)C1 [Example 78, ethyl 3-(3-(2-(difluoromethoxy)-6-methylpyridin-3-yl)-1-(2-isopropylphenyl)ureido)azetidine-1-carboxylate] | 10 to 100
23 | COc1ccc(NC(=O)N(c2ccccc2C(C)C)[C@H]2C[C@H](C(=O)O)C2)c(OC(F)F)n1 [Example 151] | 10 to 100
24 | COc1ccc(NC(=O)N(c2ccccc2C(C)C)C2CC3(CC(C(=O)O)C3)C2)c(OC(F)F)n1 (stereo not shown) [Example 233] | 10 to 100
25 | Cc1ccc(NC(=O)N(c2ccccc2C(C)C)[C@H]2CC[C@@H](C(=O)O)C2)c(OC(F)F)n1 [Example 301] | 10 to 100
26 | [2H]C([2H])([2H])Oc1cc(C(F)F)ncc1NC(=O)N(c1ccccc1C(C)C)[C@H]1CC[C@H](C(=O)O)CC1 [Example 296, (1r,4r)-4-(3-(6-(difluoromethyl)-4-(methoxy-d3)pyridin-3-yl)-1-(2-isopropylphenyl)ureido)cyclohexane-1-carboxylic acid] | 100 to 1000
27 | Cc1ccc(NC(=O)N(c2ccccc2C(C)C)C2CC(NS(C)(=O)=O)C2)c(OC(F)F)n1 (stereo not shown) [Example 272, N-(3-(3-(2-(difluoromethoxy)-6-methylpyridin-3-yl)-1-(2-isopropylphenyl)ureido)cyclobutyl)methanesulfonamide] | 10 to 100
28 | CNC(=O)CC1CC(N(C(=O)Nc2ccc(C)nc2OC(F)F)c2ccccc2C(C)C)C1 (stereo not shown) [Example 190, 2-(3-(3-(2-(difluoromethoxy)-6-methylpyridin-3-yl)-1-(2-isopropylphenyl)ureido)cyclobutyl)-N-methylacetamide] | 100 to 1000
29 | COc1ccc(NC(=O)N(c2ccccc2C(C)C)[C@H]2CC[C@H](C(=O)O)CC2)c(OCC(F)F)n1 [Example 289, (1r,4r)-4-(3-(2-(2,2-difluoroethoxy)-6-methoxypyridin-3-yl)-1-(2-isopropylphenyl)ureido)cyclohexane-1-carboxylic acid] | < 10

Same assay, conditions: LPAR1 IC50

Row | Structure (SMILES) | IC50 [nM]
30 | CC(=O)N1CCC(N(C(=O)Nc2ncc(F)cc2Br)c2ccccc2C(C)C)CC1 [Example 137] | > 1000
31 | CC(=O)N1CCC(N(C(=O)Nc2cncc(F)c2)c2ccccc2C(C)C)CC1 [Example 246] | > 1000
32 | COc1ccc(NC(=O)N(c2ccccc2C(C)C)C2CCN(C(N)=O)CC2)c(OC(F)F)n1 [Example 65, 4-(3-(2-(difluoromethoxy)-6-methoxypyridin-3-yl)-1-(2-isopropylphenyl)ureido)piperidine-1-carboxamide] | 10 to 100
33 | Cc1ccc(NC(=O)N(c2ccccc2C(C)C)C2CCN(S(C)(=O)=O)CC2)c(OC(F)F)n1 [Example 73, 3-(2-(difluoromethoxy)-6-methylpyridin-3-yl)-1-(2-isopropylphenyl)-1-(1-(methylsulfonyl)piperidin-4-yl)urea] | < 10
34 | COc1ccc(NC(=O)N(c2cccc(C)c2C)C2CCN(C(C)=O)CC2)c(OC(F)F)n1 [Example 42, 1-(1-acetylpiperidin-4-yl)-3-(2-(difluoromethoxy)-6-methoxypyridin-3-yl)-1-(2,3-dimethylphenyl)urea] | 100 to 1000
35 | CC(=O)N1CCC(N(C(=O)Nc2ccc(C)nc2OC(F)F)c2cccc(C(C)C)c2)CC1 [Example 32, 1-(1-acetylpiperidin-4-yl)-3-(2-(difluoromethoxy)-6-methylpyridin-3-yl)-1-(3-isopropylphenyl)urea] | 100 to 1000
36 | CC(=O)N1CCC(N(C(=O)Nc2cc(F)c(Br)nc2OC(F)F)c2ccccc2C(C)C)CC1 [Example 217] | 10 to 100
37 | CC(=O)N1CCC(N(C(=O)Nc2cnc(C(F)(F)F)cn2)c2ccccc2C(C)C)CC1 [Example 132] | > 1000
38 | C=C(C)c1ccccc1N(C(=O)Nc1ccc(C)nc1OC(F)F)C1CCN(C(C)=O)CC1 [Example 29, 1-(1-acetylpiperidin-4-yl)-3-(2-(difluoromethoxy)-6-methylpyridin-3-yl)-1-(2-(prop-1-en-2-yl)phenyl)urea] | 10 to 100
39 | CC(=O)N1CCC(N(C(=O)Nc2cc(F)c(C)nc2OC(F)F)c2ccccc2C(C)C)CC1 [Example 218, 1-(1-acetylpiperidin-4-yl)-3-(2-(difluoromethoxy)-5-fluoro-6-methylpyridin-3-yl)-1-(2-isopropylphenyl)urea] | 10 to 100
40 | COc1nc(C(F)F)ccc1NC(=O)N(c1ccccc1C(C)C)C1CCN(C(C)=O)CC1 [Example 113] | 10 to 100
